From BindingDB's records for doi:10.1021/jm9801197 (Kennesaw State University, 1999)

Assays:
[1] = Compound was evaluated for its binding affinity against Cannabinoid receptor 2 in Guinea pig ileum (GPI) using [3H]CP-55940 ligand
[2] = Compound was evaluated for its binding affinity against Cannabinoid receptor 1 in Guinea pig ileum (GPI) using [3H]SR-141,716A ligand at site 2
[3] = Compound was evaluated for its binding affinity against Cannabinoid receptor 1 in Guinea pig ileum (GPI) using [3H]SR-141,716A ligand at site 1
[4] = Compound was evaluated for its binding affinity against Cannabinoid receptor 1 in Guinea pig ileum (GPI) using [3H]CP-55940 ligand
[5] = Compound was evaluated for its binding affinity against Cannabinoid receptor 1 in Guinea pig ileum (GPI) using [3H]SR-141,716A ligand

Compound	Ki [1] [nM]	Ki [2] [nM]	Ki [3] [nM]	Ki [4] [nM]	Ki [5] [nM]
CC1=C(CCN2CCOCC2)c2ccccc2/C1=C/c1cccc2ccccc12 [4-(2-{2-Methyl-3-[1-naphthalen-1-yl-meth-(Z)-ylidene]-3H-inden-1-yl}-ethyl)-morpholine]	2.1	–	–	–	–
C1=C(CCN2CCOCC2)c2ccccc2/C1=C/c1cccc2ccccc12 [4-(2-{3-[1-Naphthalen-1-yl-meth-(E)-ylidene]-3H-inden-1-yl}-ethyl)-morpholine]	2.7	611	11	2.7	–
C1=C(CCN2CCOCC2)c2ccccc2/C1=C\c1cccc2ccccc12 [4-(2-{3-[1-Naphthalen-1-yl-meth-(Z)-ylidene]-3H-inden-1-yl}-ethyl)-morpholine]	132	–	–	148	928
